ChEMBL document CHEMBL2331543, “Optimization of heterocyclic substituted benzenesulfonamides as novel carbonic anhydrase IX inhibitors and their structure activity relationship” (Eur J Med Chem, 2013)

Columns and labels:
Carbonic anhydrase 9 = Carbonic anhydrase 9 (Homo sapiens, UniProt Q16790); experiment: Inhibition of recombinant human carbonic anhydrase 9 after 15 mins by stopped flow CO2 hydration assay
Carbonic anhydrase 2 = Carbonic anhydrase 2 (Homo sapiens, UniProt P00918); experiment: Inhibition of recombinant human carbonic anhydrase 2 after 15 mins by stopped flow CO2 hydration assay
Carbonic anhydrase 1 = Carbonic anhydrase 1 (Homo sapiens, UniProt P00915); experiment: Inhibition of recombinant human carbonic anhydrase 1 after 15 mins by stopped flow CO2 hydration assay
Homo sapiens [1] = species: Homo sapiens; experiment: Selectivity ratio of IC50 for recombinant human carbonic anhydrase 1 to IC50 for recombinant human carbonic anhydrase 9
Homo sapiens [2] = species: Homo sapiens; experiment: Selectivity ratio of IC50 for recombinant human carbonic anhydrase 2 to IC50 for recombinant human carbonic anhydrase 9

Sequence of Carbonic anhydrase 1 (P00915 whole entry): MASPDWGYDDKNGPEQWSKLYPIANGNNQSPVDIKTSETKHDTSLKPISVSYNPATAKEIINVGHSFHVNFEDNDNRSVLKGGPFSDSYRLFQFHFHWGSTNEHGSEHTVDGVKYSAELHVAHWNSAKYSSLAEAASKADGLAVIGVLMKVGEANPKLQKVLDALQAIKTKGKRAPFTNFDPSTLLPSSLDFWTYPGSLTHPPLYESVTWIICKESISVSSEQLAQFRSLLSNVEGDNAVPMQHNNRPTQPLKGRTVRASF

Row | Compound | IC50 (Carbonic anhydrase 9) | IC50 (Carbonic anhydrase 2) | IC50 (Carbonic anhydrase 1) | Ratio IC50 (Homo sapiens [1]) | Ratio IC50 (Homo sapiens [2])
1 | NS(=O)(=O)c1cccc(Nc2nnc(-c3ccc(Cl)cc3)c3ccccc23)c1 | > 690 nM | > 10000 nM | > 10000 nM |  | 
2 | NS(=O)(=O)c1ccc(Nc2nnc(-c3ccccc3)c3ccccc23)cc1 | > 3900 nM | > 10000 nM | > 10000 nM |  | 
3 | CC(C)(C)c1ccc(Nc2nnc(-c3cccc(S(N)(=O)=O)c3)c3ccccc23)cc1 | 29 nM | > 10000 nM | > 10000 nM | > 100 | > 100
4 | Cc1cc(-c2nnc(Nc3ccc(S(N)(=O)=O)cc3)c3ccccc23)ccc1S(N)(=O)=O | 3.3 nM | 26.8 nM | 85.7 nM | 25.7 | 8.1
5 | COc1cccc(-c2nnc(Nc3cccc(S(N)(=O)=O)c3)c3ccccc23)c1 | > 690 nM | 61.8 nM | 220 nM |  | 
6 | COc1cccc(-c2nnc(Nc3ccc(S(N)(=O)=O)cc3)c3ccccc23)c1 | 3930 nM | > 10000 nM | > 10000 nM |  | 
7 | NS(=O)(=O)c1ccc(Nc2nnc(-c3ccc(C(F)(F)F)cc3)c3ccccc23)cc1 | > 3900 nM | > 10000 nM | > 10000 nM |  | 
8 | NS(=O)(=O)c1ccc(Nc2nnc(-c3cccc(S(N)(=O)=O)c3)c3ccccc23)cc1 | 18.5 nM | 455 nM | > 10000 nM | > 1000 | 24.5
9 | NS(=O)(=O)c1cccc(Nc2nnc(-c3ccccc3)c3ccccc23)c1 | > 690 nM | > 10000 nM | > 10000 nM |  | 
10 | NS(=O)(=O)c1cccc(Nc2nnc(-c3ccc(C(F)(F)F)cc3)c3ccccc23)c1 | 690 nM | > 10000 nM | > 10000 nM |  | 
11 | Cc1ccc(-c2nnc(Nc3ccc(S(N)(=O)=O)cc3)c3ccccc23)cc1S(N)(=O)=O | 0.48 nM | 547 nM | > 10000 nM | > 10000 | 1140
12 | COc1ccc(-c2nnc(Nc3cccc(S(N)(=O)=O)c3)c3ccccc23)cc1 | > 690 nM | > 10000 nM | > 10000 nM |  | 
13 | NS(=O)(=O)c1ccc(Nc2nnc(-c3ccc(Cl)cc3)c3ccccc23)cc1 | > 3900 nM | > 10000 nM | > 10000 nM |  | 
14 | Nc1ccc(Nc2nnc(-c3cccc(S(N)(=O)=O)c3)c3ccccc23)cc1 | 28.3 nM | 147 nM | > 10000 nM | > 100 | 5.3
